Where a name gives a salt, the structure may show the parent alone.
Key:
[1] = molecular target: T1, VLA-4 (Homo sapiens, UniProt P05556+P13612); assay: VLA-4/VCAM binding (adhesion) assay in Jurkat cells; format: cell-based; details: Jurkat cells activated with 0.5 mM Mn2+, VCAM-1-coated plates, 45 min at 37° C.
T1 construct: Jurkat cells express high levels of VLA-4 on their membrane surface; host or cells: Jurkat Clone E6-1
Protocol: The following adhesion assay has been reported previously and used in this invention with minor modification. See U.S. Pat. Nos. 6,229,011 and 6,380,387 both of which are incorparated herein by reference in their entirety. […] Each assay was conducted in a 96-well plate with VCAM-1 used as the counter ligand for the cells (i.e., VCAM-1 was bound to the surface of the wells). More specifically, 96-well high-binding F96 Maxisorp immuno microtiter plates (Nunc) were coated overnight with 25 ng/well of VCAM-1. On the day of the experiment, plates were blocked for 1 h with PBS buffer containing 1% nonfat dry milk to eliminate nonspecific binding. The plates were then washed with DPBS (Dulbecco's Phosphate Buffered Saline) and blotted dry. Any excess liquid was carefully aspirated from the wells. As a control, the small molecule antagonist (27) for inhibiting VLA-4 referred to above was added to control wells in buffer containing 4% DMSO and diluted down the plate, typically in a concentration range of 1000 nM to 0.2 nM. Jurkat Clone E6-1 cells (ATCC) were labeled with 100 μg/mL 6-carboxyfluorescein diacetate, a fluorescent dye, and then activated with RPMI 1640 medium containing 0.5 mM of the divalent cation Mn^2+ and 0.05% bovine serum albumin. It is noted that this activation is needed to achieve maximal binding for the ligand and may simulate the activation of integrins by cytokines and chemokines in vivo. […] To assess VLA-4 inhibition of the VLA-4 targeting lipids (from the examples), Jurkat cells (expressing high levels of VLA-4) were added to the VCAM-1-coated plates to a final concentration of 2×10^5 cells/well in 96-well plates and allowed to incubate with the test lipids (from the examples) for 45 min at 37° C. After removing unbound cells by gently washing the wells with PBS, the fluorescence signal from the bound cells was read on a Tecan Safire2 microplate reader at 450 nm. Points were plotted and the IC50s of each lipid were determined by regression analysis using the linear portion of the concentration-response curve.

[2] = tested on: KIF11 mRNA; assay: KIF11 mRNA knockdown in MV4-11 cells by LNP-formulated KIF11 siRNA (relative to 18S ribosomal RNA); format: cell-based, human; details: added with no formulation as a control
Protocol: FIG. 1. Bar graph illustrating KIF11 mRNA knockdown in MV4-11 cells (relative to 18S ribosomal RNA as a control) with various LNP formulations containing KIF11 siRNA (formulation nos. 54F, 54I, 54L, and 54O).
The human cancer cell line MV4-11 was maintained in media supplemented with 10% heat-inactivated Fetal Bovine Serum (HI-FBS; Gibco/BRL, Gaithersburg, Md.) and 2 mM L-glutamine (Gibco/BRL).
MV4-11 suspension cells in 1 ml of culturing medium were seeded in 24-well plates 24 h before transfection and RNA quantification targeting siRNA were formulated in LNPs and directly added to the medium for transfection. Cells were then collected for RNA quantification.
Sample collection and mRNA purification for in vitro studies were performed as follows. MV4-11 cells were lysed directly on the plate with RNA lysis buffer (Qiagen). Suspension cells were collected into tubes and spun down at 2,000 rpm for 1 min, then the cell pellets were lysed with RNA lysis buffer (Qiagen). […]
Total RNA from all collected samples was purified using Qiagen RNeasy Kit following the manufacturer's protocol. Relative quantification of target mRNA and 18S ribosomal RNA gene expression was carried out with cDNA Reverse Transcription Reagents from Applied Biosystems followed by Taqman Gene Expression Assays (Applied Biosystems) using the manufacturer's protocol. […]

T1 sequence (P13612 34-1032): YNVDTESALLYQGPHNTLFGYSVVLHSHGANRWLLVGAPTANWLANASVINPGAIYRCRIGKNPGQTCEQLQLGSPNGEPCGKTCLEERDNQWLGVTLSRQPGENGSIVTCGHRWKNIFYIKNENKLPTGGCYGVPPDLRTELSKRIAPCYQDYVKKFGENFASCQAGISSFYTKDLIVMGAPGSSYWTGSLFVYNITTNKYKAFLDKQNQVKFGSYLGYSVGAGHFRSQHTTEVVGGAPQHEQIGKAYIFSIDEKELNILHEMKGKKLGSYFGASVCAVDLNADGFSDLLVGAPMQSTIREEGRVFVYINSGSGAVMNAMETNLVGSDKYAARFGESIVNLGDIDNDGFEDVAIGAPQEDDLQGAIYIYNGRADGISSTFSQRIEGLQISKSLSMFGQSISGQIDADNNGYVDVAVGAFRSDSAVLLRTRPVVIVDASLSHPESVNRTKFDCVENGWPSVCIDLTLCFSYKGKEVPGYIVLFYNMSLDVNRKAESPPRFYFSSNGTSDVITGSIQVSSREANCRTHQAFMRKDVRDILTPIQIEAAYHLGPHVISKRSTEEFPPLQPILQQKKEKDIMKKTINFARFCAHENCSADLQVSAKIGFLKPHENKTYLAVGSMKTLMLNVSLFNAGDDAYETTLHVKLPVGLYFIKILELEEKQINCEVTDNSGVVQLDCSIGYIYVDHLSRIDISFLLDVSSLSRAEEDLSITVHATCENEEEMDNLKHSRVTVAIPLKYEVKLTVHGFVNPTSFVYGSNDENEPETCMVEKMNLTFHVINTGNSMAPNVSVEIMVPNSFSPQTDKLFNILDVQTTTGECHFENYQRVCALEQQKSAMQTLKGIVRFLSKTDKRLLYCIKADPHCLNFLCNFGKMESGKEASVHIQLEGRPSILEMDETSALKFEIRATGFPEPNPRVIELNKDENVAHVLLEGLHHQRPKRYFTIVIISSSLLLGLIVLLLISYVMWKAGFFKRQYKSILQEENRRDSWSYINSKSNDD
T1 sequence (P05556 21-798): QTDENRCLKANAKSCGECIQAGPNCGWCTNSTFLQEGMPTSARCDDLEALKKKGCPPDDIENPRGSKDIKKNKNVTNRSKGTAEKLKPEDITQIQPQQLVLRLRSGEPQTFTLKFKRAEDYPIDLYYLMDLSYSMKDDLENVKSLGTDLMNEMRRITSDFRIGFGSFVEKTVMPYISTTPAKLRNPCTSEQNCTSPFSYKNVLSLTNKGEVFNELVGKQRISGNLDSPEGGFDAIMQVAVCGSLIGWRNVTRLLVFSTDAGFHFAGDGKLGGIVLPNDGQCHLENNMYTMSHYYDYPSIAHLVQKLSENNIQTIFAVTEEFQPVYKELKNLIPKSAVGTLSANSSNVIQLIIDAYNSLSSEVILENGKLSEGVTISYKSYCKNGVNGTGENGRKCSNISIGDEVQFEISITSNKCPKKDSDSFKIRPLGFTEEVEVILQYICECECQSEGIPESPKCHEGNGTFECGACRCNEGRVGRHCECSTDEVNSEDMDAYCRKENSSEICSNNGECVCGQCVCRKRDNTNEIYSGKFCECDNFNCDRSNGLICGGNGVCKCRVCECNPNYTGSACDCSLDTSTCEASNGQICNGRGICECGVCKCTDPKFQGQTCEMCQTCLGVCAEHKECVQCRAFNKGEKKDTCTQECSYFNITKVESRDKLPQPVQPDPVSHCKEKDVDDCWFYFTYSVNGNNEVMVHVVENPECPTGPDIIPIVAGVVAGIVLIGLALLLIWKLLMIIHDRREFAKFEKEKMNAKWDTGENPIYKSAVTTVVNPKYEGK

| SMILES | IC50 [1] [nM] | knockdown of KIF11 expression [2] |
| --- | --- | --- |
| CCCCCCCCCCCCCCCCOCC(C[N+](C)(C)CCCNC(=O)CCC(=O)NCCOCCOCCOCCOCCOCCOCCOCCOCCOCCOCCOCCOCCC(=O)NCCC1(C(=O)NC(Cc2ccc(NC(=O)c3c(Cl)cccc3Cl)cc2)C(=O)O)CCCC1)OCCCCCCCCCCCCCCCC [Example 4, [2,3-bis(hexadecyloxy)propyl][3-[[4-[[2-2-[2-[2-[2-[2-[2-[2-[2-[2-[2-[2-[[3-[[2-[1-[[[(S)-1-carboxy-2-[4-(2,6-dichloro-benzoylamino)phenyl]ethyl]amino]carbonyl]cyclopentyl]ethyl]amino]-3-oxopropyl]oxy]ethoxy]ethoxy]ethoxy]ethoxy]ethoxy]ethoxy]ethoxy]ethoxy]ethoxy]ethoxy]ethoxy]ethyl]amino]-1,4-dioxobutyl]amino]propyl]dimethylaminium trifluoroacetate] | 308 |  |
| Cc1cccc(Cl)c1C(=O)N[C@@H](Cc1ccc(NC(=O)c2c(Cl)cccc2Cl)cc1)C(=O)O [Example 27, (S)-2-(2-Chloro-6-methyl-benzoylamino)-3-[4-(2,6-dichloro-benzoylamino)-phenyl]-propionic acid] |  | no knockdown |
| CCCCCCCCCCCCCCCCOCC(C[N+](C)(C)CCCNC(=O)CCOCCOCCOCCOCCOCCOCCOCCOCCOCCC(=O)NCCC1(C(=O)N[C@@H](Cc2ccc(NC(=O)c3c(Cl)cccc3Cl)cc2)C(=O)O)CCCC1)OCCCCCCCCCCCCCCCC (stereo partly drawn) [Example 3, [[2,3-bis(hexadecyloxy)propyl][3-[[3-[2-[2-[2-[2-[2-[2-[2-[2-[[3-[[2-[1-[[[(S)-1-carboxy-2-[4-(2,6-dichloro-benzoylamino)phenyl]ethyl]amino]carbonyl]cyclopentyl]ethyl]amino]-3-oxopropyl]oxy]ethoxy]ethoxy]ethoxy]ethoxy]ethoxy]ethoxy]ethoxy]ethoxy]-1-oxopropyl]amino]propyl]dimethylaminium trifluoroacetate] | 1000 |  |
| CCCCCCCCCCCCOCC(C[N+](C)(C)CCCNC(=O)CCC(=O)NCCOCCOCCOCCOCCOCCOCCOCCOCCOCCOCCOCCOCCC(=O)NCCC1(C(=O)N[C@@H](Cc2ccc(NC(=O)c3c(Cl)cccc3Cl)cc2)C(=O)O)CCCC1)OCCCCCCCCCCCC (stereo partly drawn) [Example 2, [2,3-bis(dodecyloxy)propyl][3-[[4-[[2-[2-[2-[2-[2-[2-[2-[2-[2-[2-[2-[2-[[3-[[2-[1-[[[(S)-1-carboxy-2-[4-(2,6-dichloro-benzoylamino)phenyl]ethyl]amino]carbonyl]cyclopentyl]ethyl]amino]-3-oxopropyl]oxy]ethoxy]ethoxy]ethoxy]ethoxy]ethoxy]ethoxy]ethoxy]ethoxy]ethoxy]ethoxy]ethoxy]ethyl]amino]-1-4-dioxobutyl]amino]propyl]dimethylaminium trifluoroacetate] | 942 |  |
| CCCCCCCCCCCCCCCCCCOCC(C[N+](C)(C)CCCNC(=O)CCOCCOCCOCCOCCOCCOCCOCCOCCOCCC(=O)NCCC1(C(=O)N[C@@H](Cc2ccc(NC(=O)c3c(Cl)cccc3Cl)cc2)C(=O)O)CCCC1)OCCCCCCCCCCCCCCCCCC (stereo partly drawn) [Example 6, [2,3-bis(octadecyloxy)propyl][3-[[3-[2-[2-[2-[2-[2-[2-[2-[2-[[3-[[2-[1-[[[(S)-1-carboxy-2-[4-(2,6-dichloro-benzoylamino)phenyl]ethyl]amino]carbonyl]cyclopentyl]ethyl]amino]-3-oxopropyl]oxy]ethoxy]ethoxy]ethoxy]ethoxy]ethoxy]ethoxy]ethoxy]ethoxy]-1-oxopropyl]amino]propyl]dimethylaminium bromide] | 133 |  |
| CCCCCCCCCCCCCCCCCCCCOCC(CN(C)CCCNC(=O)CCOCCOCCOCCOCCOCCOCCOCCOCCOCCC(=O)NCCC1(C(=O)N[C@@H](Cc2ccc(NC(=O)c3c(Cl)cccc3Cl)cc2)C(=O)O)CCCC1)OCCCCCCCCCCCCCCCCCCCC (stereo partly drawn) [Example 8, (S)-Alpha-[[[1-[2-[[3-[2-[2-[2-[2-[2-[2-[2-[2-[[3-[[3-[[2,3-bis(icosanyloxy)propyl]methylamino]propyl]amino]-3-oxopropyl]oxy]ethoxy]ethoxy]ethoxy]ethoxy]ethoxy]ethoxy]ethoxy]ethoxy]-1-oxoproyl]amino]ethyl]cyclopentyl]carbonyl]amino]-4-(2,6-dichlorobenzoylamino)benzenepropanoic acid] | 1000 |  |
| CCCCCCCCCCCCOCC(C[N+](C)(C)CCCNC(=O)CCOCCOCCOCCOCCOCCOCCOCCOCCOCCC(=O)NCCC1(C(=O)N[C@@H](Cc2ccc(NC(=O)c3c(Cl)cccc3Cl)cc2)C(=O)O)CCCC1)OCCCCCCCCCCCC (stereo partly drawn) [Example 1, [2,3-bis(dodecyloxy)propyl][3-[[3-[2-[2-[2-[2-[2-[2-[2-[2-[[3-[[2-[1-[[[(S)-1-carboxy-2-[4-(2,6-dichloro-benzoylamino)phenyl]ethyl]amino]carbonyl]cyclopentyl]ethyl]amino]-3-oxopropyl]oxy]ethoxy]ethoxy]ethoxy]ethoxy]ethoxy]ethoxy]ethoxy]ethoxy]-1-oxopropyl]amino]propyl]dimethylaminium trifluoroacetate] | 587 |  |
| CCCCCCCCCCCCCCCCCCCCOCC(C[N+](C)(C)CCCNC(=O)CCOCCOCCOCCOCCOCCOCCOCCOCCOCCC(=O)NCCC1(C(=O)N[C@@H](Cc2ccc(NC(=O)c3c(Cl)cccc3Cl)cc2)C(=O)O)CCCC1)OCCCCCCCCCCCCCCCCCCCC (stereo partly drawn) [Example 7, [2,3-bis(icosanyloxy)propyl][3-[[3-[2-[2-[2-[2-[2-[2-[2-[2-[[3-[[2-[1-[[[(S)-1-carboxy-2-[4-(2,6-dichloro-benzoylamino)phenyl]ethyl]amino]carbonyl]cyclopentyl]ethyl]amino]-3-oxopropyl]oxy]ethoxy]ethoxy]ethoxy]ethoxy]ethoxy]ethoxy]ethoxy]ethoxy]-1-oxopropyl]amino]propyl]dimethylaminium bromide] | 89 |  |
| CCCCCCCCCCCCCCCCOCC(CN(C)CCCNC(=O)CCC(=O)NCCOCCOCCOCCOCCOCCOCCOCCOCCOCCOCCOCCOCCC(=O)NCCC1(C(=O)N[C@@H](Cc2ccc(NC(=O)c3c(Cl)cccc3Cl)cc2)C(=O)O)CCCC1)OCCCCCCCCCCCCCCCC (stereo partly drawn) [Example 5, (S)-Alpha-[[[1-[2-[[3-[2-[2-[2-[2-[2-[2-[2-[2-[2-[2-[2-[2-[[4-[[3-[[2,3-bis(hexadecyloxy)propyl]methylamino]propyl]amino]-1,4-dioxobutyl]amino]ethoxy]ethoxy]ethoxy]ethoxy]ethoxy]ethoxy]ethoxy]ethoxy]ethoxy]ethoxy]ethoxy]ethoxy]-1-oxoproyl]amino]ethyl]cyclopentyl]carbonyl]amino]-4-(2,6-dichlorobenzoylamino) benzenepropanoic acid] | 6 |  |

— US20130079383A1, “Lipid Compounds Targeting VLA-4” (ARROWHEAD RESEARCH CORPORATION, priority 2011, published 2013)
